Assay results taken from patent publication US20220054658A1, “CONJUGATES” (Transfection Holdings Limited, priority 2018, published 2022).
Entries after “also recorded” stand apart in the source; their conditions may differ.

Legend:
C. elegans [1] = test: Conjugate uptake in C. elegans (dye and praziquantel conjugates, fluorescence microscopy); type: in vivo, Caenorhabditis elegans
Outline: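 Worms in M9 buffer were exposed to 50 μM compound from a DMSO stock at room temperature in the dark for 3 h. Other samples were incubated overnight at 20 °C with OP50, and praziquantel conjugates were also read at 24 and 72 h. Worms were washed, immobilised with sodium azide on agarose and imaged by fluorescence microscopy.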

C. elegans [2] = test: Protein uptake in C. elegans (phiLOV protein conjugates); type: in vivo, Caenorhabditis elegans; conditions: positive control
Procedure: The effective PhiLOV protein conjugate in M9 buffer was taken from the chemical ligation and purification experiments. The amount of M9 buffer added was determined by the final concentration required. Nematodes (30-40 per protein sample to be analysed) were picked and added to the protein solution, and the resulting suspension was treated with OP50 E. coli solution for nematode sustenance. The nematode suspension was incubated at 20° C. in the dark, and covered with aluminium foil.
Aliquots (10 to 25 μL) were taken at 24, 48 and 72 h. and transferred into a new Eppendorf tube at each time point and diluted with M9 buffer (200 μL). The new suspension was placed in ice (for 1-2 min) and then centrifuged at 10.000 rpm for 1 min. The supernatant was removed and the concentrated nematodes were washed again (2×200 μL). In the final wash, a residual volume (approx. 30 μL) was left with the nematodes.
For the microscopy studies, a 1.5% agarose solution in water was warmed up for 1-1.5 min in a standard household microwave (Power 4). Two drops of the agarose solution were placed on a glass slide and covered with another glass slide. After 1 min, the two slides were taken apart from each other carefully. On the slide where the agarose remained, 15-20 μL of the final C. elegans solution was placed. To this was added a 20 mM sodium azide solution (5 μL) to inhibit nematode mobility.
Vaseline was placed around the agarose area before replacing the top cover slip. The cover slips were not pressed together. The nematodes were then analysed using a Zeiss Axiskop 2 Plus microscope using a Hamamatsu Orca-ER (CA 742-95) camera. The images were resolved using OpenLab on a Mac operating system.
Feeding was repeated after 48 h. with addition of 2 μL of OP50 bacteria for feeding purposes, and the worm incubation was continued in the dark at […].
Using the approach described above, 11 protein conjugates were tested for their ability to deliver the phiLOV protein into nematodes. […] The location and efficiency of the delivery can be modulated by small structural modifications to the delivery vehicle, as shown by compounds P1-P11 (including negative control, positive control using compound 1 and untagged phiLOV protein control).

L. passim strain PRA-403 = test: Lotmaria passim parasite uptake test; type: cell-based; conditions: 1 μM, room temperature, 45 min, microplate reader
[3] = system: gastrointestinal system (crop, midgut and rectum) of adult honey bees; test: Honey bee gut uptake test; design: species or system Apis mellifera; conditions: 100 μM, 33° C., 45 min
Procedure: Honey bee (A. mellifera) hives were obtained and allowed to feed ab libitum spring to autumn. During the winter period, pollen mixed with 50% (v/v) sucrose was added to the honey bee hives in order to provide sufficient food. Honey bees were dissected and gastrointestinal system was removed including the crop, midgut and rectum, and added immediately to 500 μL of the delivery vehicle to be tested sample diluted with PBS at 100 μM final concentration or DMSO (0.1%) control. The mixture was incubated for 45 min at 33° C.
The gastrointestinal system (crop, midgut and rectum) of adult honey bees was extracted, and incubated with derivatives 1, 2, 8 and 11 at 100 μM and 33° C. for 45 min.

[4] = system: M. tuberculosis strain H37Rv; test: Uptake test in M. tuberculosis; type: cell-based, Mycobacterium tuberculosis; conditions: 50 μg/mL (~80 μM), room temperature, 45 min

For `CC1=CC(C)=[N+]2C1=Cc1ccc(CCCn3cc(CCNC(=O)/C=C/NC(=O)[C@@H]4OC(C)(C)OCC4(C)C)nn3)n1[B-]2(F)F` [Compound 1, (R,E)-N-((((3-[4,4-Difluoro-5,7-dimethyl-4-bora-3a,4a-diaza-s-indacene-3-yl]propyl)-1H-1,2,3-triazol-4-yl)ethylamino)-3-oxoprop-1-enyl)-2,2,5,5-tetramethyl-1,3-dioxane-4-carboxamide], the “uptake compared to other compounds” value (C. elegans [1]; 50 μM, 3 h incubation) was “largest uptake observed compared to compounds 2 to 8”, the “uptake: location of fluorescence in C. elegans” value (C. elegans [1]; 50 μM, 3 h incubation) was “observed in the pharynx, gut lumen and gut cells of both adults and larval stages” and the “uptake: location of fluorescence in C. elegans” value (C. elegans [1]; 50 μM, 20 h / overnight incubation) was “strong fluorescence was localised in the pharynx, gut lumen and gut cells of both adults and larvae”. The “distribution in C. elegans” value (C. elegans [1]; FIG. 2(h), fluorescence microscopy) was “distributed throughout the nematode”, the “location of fluorescence in C. elegans” value (C. elegans [2]; 24 h incubation) was “fluorescence could be observed in the pharynx, gut lumen and gut cells of both adults and larval stages of C. elegans” and the “location of fluorescence in C. elegans” value (C. elegans [2]; 48 h incubation) was “fluorescence was still localised in the pharynx, gut lumen and gut cells of both adults and larvae”. The “location of fluorescence in C. elegans” value (C. elegans [2]; 72 h incubation) was “fluorescence was still localised in the pharynx, gut lumen and gut cells of both adults and larvae”, the “state of adult nematodes” value (C. elegans [2]; 72 h point (same seen with M9 buffer negative control)) was “the adult nematodes were dead” and the “fluorescence relative to derivative 2” value (L. passim strain PRA-403) was “approximately % of the fluorescence of derivative 2”. The “fluorescence in honey bee gut (crop, midgut, rectum)” value [3] was “high fluorescence in the midgut and rectum, but not the crop” and the “uptake in M. tuberculosis (fluorescence intensity / microscopy)” value [4] was “preferred over their S counterparts; also recorded: highest fluorescence signals”.
